This passage reports IC50 results from patent publication US20260022142A1, “MACROCYCLIC IMMUNOMODULATORS” (Bristol-Myers Squibb Company, priority 2022, published 2026).

SMILES strings stand for the structures. Numbered stars: 1 amine (or outer) side, 2 acyl side, 3 side chain; on linkers, the order of the positions; unused ones are H or OH. Bridge positions count the residues as written; N and C are the ends. Square brackets hold non-standard residues; d marks the D form. Peptide text beside a SMILES is read from it. * marks the point of attachment. Bip = N[C@@H](Cc1ccc(-c2ccccc2)cc1)C(=O)O; X13 = N[C@@H](CN*)C(=O)NCCCCCCCCCCC(=O)O; X14 = N[C@H](CN*)C(=O)NCCCCCCCCCCC(=O)O; Phe(3-Me) = Cc1cccc(C[C@H](N)C(=O)O)c1; X16 = O=C(C1CCC(CN[*:1])CC1)[*:2]; X6 = O=C(Cc1ccc(CN[*:1])cc1)[*:2]; hhGln = NC(=O)CCCC[C@H](N)C(=O)O; Cha = N[C@@H](CC1CCCCC1)C(=O)O; Cit = NC(=O)NCCC[C@H](N)C(=O)O; Carboxymethyl = O=C(O)C*; Orn = NCCC[C@H](N)C(=O)O; Aun = NCCCCCCCCCCC(=O)O; Dab = NCC[C@H](N)C(=O)O; Dap = NC[C@H](N)C(=O)O; AEEA = NCCOCCOCC(=O)O

For the experiment, the target named is T1, PD-1/PD-L1 interaction (PE-labeled human PD-L1-Ig binding to Jurkat cell line over-expressing human PD-1) (Homo sapiens, UniProt Q15116).
T1 construct: expressed in transfected cells; host or cells: Jurkat
T1 sequence (Q15116 25-288): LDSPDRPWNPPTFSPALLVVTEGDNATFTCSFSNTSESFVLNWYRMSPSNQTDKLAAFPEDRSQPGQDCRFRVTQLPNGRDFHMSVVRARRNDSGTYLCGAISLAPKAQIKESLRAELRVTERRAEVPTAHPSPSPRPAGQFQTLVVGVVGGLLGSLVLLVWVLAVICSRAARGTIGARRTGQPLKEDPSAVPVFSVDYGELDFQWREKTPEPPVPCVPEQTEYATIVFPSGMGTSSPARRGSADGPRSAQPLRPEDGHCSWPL
In words: Jurkat-PD-1 Cell Binding High-Content Screening Assay (CBA). Type of experiment: cell-based. The conditions noted are these: Jurkat cell line over-expressing human PD-1; PE-labeled PD-L1-Ig 20 nM final; read-out: Jurkat hPD1-PDL1 IC50. In outline:
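Jurkat-hPD-1 cells, DMEM/10% FCS; cpd 2 h 37° C; PE-PD-L1-Ig 20 nM final, 1 h; 4% PFA fix + Hoechst 33342, 3× dPBS wash; high-content imaging read-out.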
The term IC50 denotes the concentration at which inhibition is half-maximal. Regarding `Cc1cccc(C[C@@H]2NC(=O)[C@H](CC(=O)O)NC(=O)[C@H](Cc3ccc(OCC(=O)O)cc3)NC(=O)[C@H](CN)NC(=O)CSC[C@@H](C(=O)N[C@H](C)CC(=O)NCCCCCCCCCCC(=O)O)NC(=O)[C@H]([C@@H](C)O)NC(=O)[C@H](C(C)C)NC(=O)[C@H](CC3CCCCC3)NC(=O)[C@H](CCN)NC(=O)[C@@H](CC(C)C)NC(=O)[C@H](CCCN)NC(=O)[C@H](CCCNC(N)=O)NC(=O)[C@H](Cc3ccc(-c4ccccc4)cc3)NC(=O)[C@H](C(C)C)NC2=O)c1` [Compound 2620], the IC50 worked out at 28.1 nM. Next, `Cc1cccc(C[C@@H]2NC(=O)[C@H](CC(=O)O)NC(=O)[C@H](Cc3ccc(OCC(=O)O)cc3)NC(=O)[C@H](CN)NC(=O)CSC[C@@H](C(=O)NC[C@H](N)C(=O)NCCCCCCCCCCC(=O)O)NC(=O)[C@H]([C@@H](C)O)NC(=O)[C@H](C(C)C)NC(=O)[C@H](CC3CCCCC3)NC(=O)[C@H](CCN)NC(=O)[C@@H](CC(C)C)NC(=O)[C@H](CCCN)NC(=O)[C@H](CCCNC(N)=O)NC(=O)[C@H](Cc3ccc(-c4ccccc4)cc3)NC(=O)[C@H](C(C)C)NC2=O)c1` [Compound 2621] ({CH2CO}-[Dap]Y(Carboxymethyl)D[Phe(3-Me)]V[Bip][Cit][Orn][dL][Dab][Cha]VTC-X13; thioether N-14): 16.8 nM; `Cc1cccc(C[C@@H]2NC(=O)[C@H](CC(=O)O)NC(=O)[C@H](Cc3ccc(OCC(=O)O)cc3)NC(=O)[C@H](CN)NC(=O)CSC[C@@H](C(=O)NC[C@@H](N)C(=O)NCCCCCCCCCCC(=O)O)NC(=O)[C@H]([C@@H](C)O)NC(=O)[C@H](C(C)C)NC(=O)[C@H](CC3CCCCC3)NC(=O)[C@H](CCN)NC(=O)[C@@H](CC(C)C)NC(=O)[C@H](CCCN)NC(=O)[C@H](CCCNC(N)=O)NC(=O)[C@H](Cc3ccc(-c4ccccc4)cc3)NC(=O)[C@H](C(C)C)NC2=O)c1` [Compound 2622] ({CH2CO}-[Dap]Y(Carboxymethyl)D[Phe(3-Me)]V[Bip][Cit][Orn][dL][Dab][Cha]VTC-X14; thioether N-14): 30.6 nM.

For `Cc1cccc(C[C@@H]2NC(=O)[C@H](CC(=O)O)NC(=O)[C@H](Cc3ccc(OCC(=O)O)cc3)NC(=O)[C@H](CN)NC(=O)CSC[C@@H](C(=O)NCC3CCC(C(=O)NCCCCCCCCCCC(=O)O)CC3)NC(=O)[C@H]([C@@H](C)O)NC(=O)[C@H](C(C)C)NC(=O)[C@H](CC3CCCCC3)NC(=O)[C@H](CCN)NC(=O)[C@@H](CC(C)C)NC(=O)[C@H](CCCN)NC(=O)[C@H](CCCNC(N)=O)NC(=O)[C@H](Cc3ccc(-c4ccccc4)cc3)NC(=O)[C@H](C(C)C)NC2=O)c1` (stereo partly drawn) [Compound 2623] ({CH2CO}-[Dap]Y(Carboxymethyl)D[Phe(3-Me)]V[Bip][Cit][Orn][dL][Dab][Cha]VTC[X16][Aun]-OH; thioether N-14), the IC50 is 27.5 nM.

Take `Cc1cccc(C[C@@H]2NC(=O)[C@H](CC(=O)O)NC(=O)[C@H](Cc3ccc(OCC(=O)O)cc3)NC(=O)[C@H](CN)NC(=O)CSC[C@@H](C(=O)NCc3ccc(CC(=O)NCCCCCCCCCCC(=O)O)cc3)NC(=O)[C@H]([C@@H](C)O)NC(=O)[C@H](C(C)C)NC(=O)[C@H](CC3CCCCC3)NC(=O)[C@H](CCN)NC(=O)[C@@H](CC(C)C)NC(=O)[C@H](CCCN)NC(=O)[C@H](CCCNC(N)=O)NC(=O)[C@H](Cc3ccc(-c4ccccc4)cc3)NC(=O)[C@H](C(C)C)NC2=O)c1` [Compound 2624] ({CH2CO}-[Dap]Y(Carboxymethyl)D[Phe(3-Me)]V[Bip][Cit][Orn][dL][Dab][Cha]VTC[X6][Aun]-OH; thioether N-14): the IC50 amounted to 34.5 nM. Next, `CC(C)C[C@H]1NC(=O)[C@H](CCCN)NC(=O)[C@H](CCCNC(N)=O)NC(=O)[C@H](Cc2ccc(-c3ccccc3)cc2)NC(=O)[C@H](C(C)C)NC(=O)[C@H](Cc2c[nH]c3ccccc23)NC(=O)[C@H](CC(=O)O)NC(=O)[C@H](Cc2ccc(OCC(=O)O)cc2)NC(=O)[C@H](CN)NC(=O)CSC[C@@H](C(=O)NCCOCCOCC(=O)N[C@@H](CCN)C(=O)NCCCCCCCCCCC(=O)O)NC(=O)[C@H](CCCCN)NC(=O)[C@H](C(C)C)NC(=O)[C@H](CC2CCCCC2)NC(=O)[C@H](CCN)NC1=O` [Compound 2625] ({CH2CO}-[Dap]Y(Carboxymethyl)DWV[Bip][Cit][Orn][dL][Dab][Cha]VKC[AEEA][Dab][Aun]-OH; thioether N-14): 16.7 nM; `CC[C@H](C)[C@@H]1NC(=O)[C@H](Cc2ccc(-c3ccccc3)cc2)NC(=O)[C@H](C(C)C)NC(=O)[C@H](Cc2c[nH]c3ccccc23)NC(=O)[C@H](CC(=O)O)NC(=O)[C@H](Cc2ccc(OCC(=O)O)cc2)NC(=O)[C@H](CN)NC(=O)CSC[C@@H](C(=O)NCCOCCOCC(=O)N[C@@H](CCN)C(=O)NCCCCCCCCCCC(=O)O)NC(=O)[C@H](CCCCN)NC(=O)[C@H](C(C)C)NC(=O)[C@H](CC2CCCCC2)NC(=O)[C@H](CCN)NC(=O)[C@@H](CC(C)C)NC(=O)[C@H](CCCN)NC1=O` [Compound 2626] ({CH2CO}-[Dap]Y(Carboxymethyl)DWV[Bip]I[Orn][dL][Dab][Cha]VKC[AEEA][Dab][Aun]-OH; thioether N-14): 11.9 nM; `Cc1cccc(C[C@@H]2NC(=O)[C@H](CC(=O)O)NC(=O)[C@H](Cc3ccc(OCC(=O)O)cc3)NC(=O)[C@H](CN)NC(=O)CSC[C@@H](C(=O)NCCOCCOCC(=O)N[C@@H](CCN)C(=O)NCCCCCCCCCCC(=O)O)NC(=O)[C@H](CN)NC(=O)[C@H](C(C)C)NC(=O)[C@H](CC3CCCCC3)NC(=O)[C@H](CCN)NC(=O)[C@@H](CC(C)C)NC(=O)[C@H](CCCN)NC(=O)[C@H](CCCNC(N)=O)NC(=O)[C@H](Cc3ccc(-c4ccccc4)cc3)NC(=O)[C@H](C(C)C)NC2=O)c1` [Compound 2627] ({CH2CO}-[Dap]Y(Carboxymethyl)D[Phe(3-Me)]V[Bip][Cit][Orn][dL][Dab][Cha]V[Dap]C[AEEA][Dab][Aun]-OH; thioether N-14): 14.1 nM. Next, `CC[C@H](C)[C@@H]1NC(=O)[C@H](Cc2ccc(-c3ccccc3)cc2)NC(=O)[C@H](C(C)C)NC(=O)[C@H](Cc2cccc(C)c2)NC(=O)[C@H](CC(=O)O)NC(=O)[C@H](Cc2ccc(OCC(=O)O)cc2)NC(=O)[C@H](CN)NC(=O)CSC[C@@H](C(=O)NCCOCCOCC(=O)N[C@@H](CCN)C(=O)NCCCCCCCCCCC(=O)O)NC(=O)[C@H](CN)NC(=O)[C@H](C(C)C)NC(=O)[C@H](CC2CCCCC2)NC(=O)[C@H](CCN)NC(=O)[C@@H](CC(C)C)NC(=O)[C@H](CCCN)NC1=O` [Compound 2628] ({CH2CO}-[Dap]Y(Carboxymethyl)D[Phe(3-Me)]V[Bip]I[Orn][dL][Dab][Cha]V[Dap]C[AEEA][Dab][Aun]-OH; thioether N-14): 15.1 nM; `Cc1cccc(C[C@@H]2NC(=O)[C@H](CC(=O)O)NC(=O)[C@H](Cc3ccc(OCC(=O)O)cc3)NC(=O)[C@H](CN)NC(=O)CSC[C@@H](C(=O)NCCOCCOCC(=O)N[C@@H](CCN)C(=O)NCCCCCCCCCCC(=O)O)NC(=O)[C@H](CCCN)NC(=O)[C@H](C(C)C)NC(=O)[C@H](CC3CCCCC3)NC(=O)[C@H](CCN)NC(=O)[C@@H](CC(C)C)NC(=O)[C@H](CCCN)NC(=O)[C@H](CCCNC(N)=O)NC(=O)[C@H](Cc3ccc(-c4ccccc4)cc3)NC(=O)[C@H](C(C)C)NC2=O)c1` [Compound 2629] ({CH2CO}-[Dap]Y(Carboxymethyl)D[Phe(3-Me)]V[Bip][Cit][Orn][dL][Dab][Cha]V[Orn]C[AEEA][Dab][Aun]-OH; thioether N-14): 8.6 nM.

Take `CC[C@H](C)[C@@H]1NC(=O)[C@H](Cc2ccc(-c3ccccc3)cc2)NC(=O)[C@H](C(C)C)NC(=O)[C@H](Cc2cccc(C)c2)NC(=O)[C@H](CC(=O)O)NC(=O)[C@H](Cc2ccc(OCC(=O)O)cc2)NC(=O)[C@H](CN)NC(=O)CSC[C@@H](C(=O)NCCOCCOCC(=O)N[C@@H](CCN)C(=O)NCCCCCCCCCCC(=O)O)NC(=O)[C@H](CCCN)NC(=O)[C@H](C(C)C)NC(=O)[C@H](CC2CCCCC2)NC(=O)[C@H](CCN)NC(=O)[C@@H](CC(C)C)NC(=O)[C@H](CCCN)NC1=O` [Compound 2630] ({CH2CO}-[Dap]Y(Carboxymethyl)D[Phe(3-Me)]V[Bip]I[Orn][dL][Dab][Cha]V[Orn]C[AEEA][Dab][Aun]-OH; thioether N-14): the IC50 stood at 9.9 nM. Next, `CC(C)C[C@H]1NC(=O)[C@H](CCCN)NC(=O)[C@H](CCCCC(N)=O)NC(=O)[C@H](Cc2ccc(-c3ccccc3)cc2)NC(=O)[C@H](C(C)C)NC(=O)[C@H](Cc2c[nH]c3ccccc23)NC(=O)[C@H](CC(=O)O)NC(=O)[C@H](Cc2ccc(OCC(=O)O)cc2)NC(=O)[C@H](CN)NC(=O)CSC[C@@H](C(=O)N[C@@H](CCN)C(=O)NCCOCCOCC(=O)NCCCCCCCCCCC(=O)O)NC(=O)[C@H](CCCCN)NC(=O)[C@H](C(C)C)NC(=O)[C@H](CC2CCCCC2)NC(=O)[C@H](CCN)NC1=O` [Compound 2631] ({CH2CO}-[Dap]Y(Carboxymethyl)DWV[Bip][hhGln][Orn][dL][Dab][Cha]VKC[Dab][AEEA][Aun]-OH; thioether N-14): 14.1 nM; `CC[C@H](C)[C@@H]1NC(=O)[C@H](Cc2ccc(-c3ccccc3)cc2)NC(=O)[C@H](C(C)C)NC(=O)[C@H](Cc2c[nH]c3ccccc23)NC(=O)[C@H](CC(=O)O)NC(=O)[C@H](Cc2ccc(OCC(=O)O)cc2)NC(=O)[C@H](CN)NC(=O)CSC[C@@H](C(=O)N[C@@H](CCN)C(=O)NCCOCCOCC(=O)NCCCCCCCCCCC(=O)O)NC(=O)[C@H](CCCCN)NC(=O)[C@H](C(C)C)NC(=O)[C@H](CC2CCCCC2)NC(=O)[C@H](CCN)NC(=O)[C@@H](CC(C)C)NC(=O)[C@H](CCCN)NC1=O` [Compound 2632] ({CH2CO}-[Dap]Y(Carboxymethyl)DWV[Bip]I[Orn][dL][Dab][Cha]VKC[Dab][AEEA][Aun]-OH; thioether N-14): 12.4 nM.
